Paper PMC6143625, “A high throughput screen for next-generation leads targeting malaria parasite transmission” (Nature Communications, 2018)

Assays:
[1] = system: P. falciparum stage V female gametocytes (female gamete formation); assay: P. falciparum dual gamete formation assay (Pf DGFA), female readout (Pfs25 expression), 48 h carry-over format; format: cell-based, Plasmodium falciparum NF54; conditions: primary screen, 2 uM, 48 h incubation, single replicate
[2] = system: P. falciparum stage V male gametocytes (male gamete formation); assay: P. falciparum dual gamete formation assay (Pf DGFA), male readout (exflagellation), 48 h carry-over format; format: cell-based, Plasmodium falciparum NF54; conditions: primary screen, 2 uM, 48 h incubation, single replicate

| SMILES | %Inhibition Female @2uM [1] [%] | %Inhibition Male @2uM [2] [%] |
| --- | --- | --- |
| CC(C)[C@H](NS(C)(=O)=O)C(=O)NCc1cc(-c2ccco2)n[nH]1 [DDD01235905] | <30 | 31.18 |
| CC(C)[C@H](NS(C)(=O)=O)C(=O)NCc1cc(-c2ccccc2)n[nH]1 [DDD01235932] | <30 | 32.71 |
| CC(C)(C)Nc1nc(-c2cccnc2)c(-c2ccnc(NCCO)n2)s1 [DDD01235967] | <30 | 38.85 |
| CCOCC(=O)N1CCC(c2nccn2Cc2cscn2)CC1 [DDD01243474] | <30 | 109.47 |
| O=C(O)CCc1cc2n(n1)CCCN(C(=O)c1ccc(F)cc1F)C2 [DDD01243729] | <30 | 76.28 |
| NCC1CCCN(c2nc(-c3ccccc3)nc3c2CCNCC3)C1 (centres unmarked) [DDD01244614] | 30.18 | 71.27 |
| Cn1nnnc1SCCNC(=O)C1CCN(C(=O)C2CC2)CC1 [DDD01244691] | <30 | 73.04 |
| CCC(C(=O)N(C)C)N1CCC(c2nccn2Cc2cscn2)CC1 (centres unmarked) [DDD01244731] | <30 | 126.32 |
| CN(C)c1ccc(C(=O)N2CCCN(C3CCCCC3)CC2)cn1 [DDD01244855] | 30.12 | <30 |
| COC(=O)c1ccc(C(=O)N2CCCC(Nc3ccc(F)cc3)C2)cc1 (centres unmarked) [DDD01244904] | <30 | 109.47 |
| CN(Cc1cnn(C)c1)c1nccc(-c2cc(C(=O)O)ccn2)n1 [DDD01245058] | 33.22 | <30 |
| Cc1nc[nH]c1CN1CCn2nc(CN3Cc4ccccc4C3)cc2C1 [DDD01245298] | <30 | 30.45 |
| COc1cccc2c1OCC(C(=O)N1CCN(CCS(C)(=O)=O)CC1)C2 (centres unmarked) [DDD01245746] | <30 | 56.62 |
| CCNC(=O)[C@@H]1C[C@H](NC(=O)c2cncnc2C)CN1Cc1ccsc1 [DDD01245940] | 96.27 | <30 |
| Cc1cccc(=O)n1CCCNc1nc(N(C)C)nc2c1CCNC2 [DDD01245962] | <30 | 35.31 |
| CN(C)Cc1nnc(C2CCN(c3ncccc3Cl)CC2)n1C1CC1 [DDD01246077] | <30 | 30.72 |
| COCCN(C)CCN1CC2(CCN(C3CCOC3)CC2)OC1=O (centres unmarked) [DDD01246090] | <30 | 126.32 |
| COc1cccc2c1OCC(C(=O)N1Cc3ccccc3C1)C2 (centres unmarked) [DDD01246187] | <30 | 112.07 |
| O=C(c1ccccn1)N1C[C@H]2CC[C@@H](C1)N(C(=O)CCN1CCCC1)C2 [DDD01246765] | <30 | 99.89 |
| CCc1ccc(CN(C)C(=O)C2CC(=O)N(c3cccc(O)c3)C2)nc1 (centres unmarked) [DDD01246796] | <30 | 126.32 |
| C=C1C(C)(C)[C@@H]2CC[C@]1(C(=O)N1CCC(n3cc(CCO)nn3)CC1)C2 [DDD01246808] | 30.26 | <30 |
| COCCN(C)CCN1CC2(CCN(C3CCSC3)CC2)OC1=O (centres unmarked) [DDD01246844] | <30 | 176.84 |
| Cc1cccc(C(=O)N2CCCC(c3nccn3Cc3cscn3)C2)n1 (centres unmarked) [DDD01247041] | <30 | 160.00 |
| Cc1ccccc1OCC(=O)N1CCOC2(CNCCOC2)C1 (centres unmarked) [DDD01247077] | <30 | 174.44 |
| COc1cccc(Cn2c(C)c(C)oc2=O)c1OC [DDD01247327] | 30.45 | <30 |
| CN(C)CC(=O)NC1CC(C)(C)Cc2nc(C(C)(C)C)ncc21 (centres unmarked) [DDD01247509] | 43.65 | <30 |
| c1cc(CN2CCC(c3ccncc3)CC2)cc(Cn2cccn2)c1 [DDD01247553] | <30 | 75.89 |
| CCNC(=O)[C@@H]1C[C@H](N)CN1C(=O)C1(c2ccc(OC)cc2)CCCC1 [DDD01247775] | 31.68 | <30 |

| SMILES | %Inhibition Female @2uM [1] [%] | %Inhibition Male @2uM [2] [%] |
| --- | --- | --- |
| Cc1ccc(CN(Cc2ccncc2)C2CCN(C)CC2)s1 [DDD01247850] | 35.49 | <30 |
| CSc1nccc(N2CCC(=O)N(CC3CC3)C(C(C)C)C2)n1 (centres unmarked) [DDD01248006] | <30 | 91.33 |
| CCn1c(C2CCCN(C(=O)c3ccc[nH]3)C2)nn(CCN(C)C)c1=O (centres unmarked) [DDD01248239] | <30 | 83.64 |
| CCc1ccc(CN(C)Cc2cnc(S(=O)(=O)CC)n2CCOC)cc1 [DDD01248618] | <30 | 143.16 |
| O=C(O)C1(Oc2ccccc2F)CCN(C/C=C/c2ccco2)CC1 [DDD01248641] | 35.65 | <30 |
| CN(C)C(=O)NCc1cc2n(n1)CCCN(CC1CCCNC1)C2 (centres unmarked) [DDD01248722] | <30 | 166.37 |
| Cc1cccc2[nH]c(C3CCN(C(=O)c4ccc[nH]4)CC3)nc12 [DDD01248889] | <30 | 179.77 |
| Cc1nc2cc(OCc3nc(C(=O)NC(C)(CO)CO)co3)ccc2s1 [DDD01248928] | <30 | 109.47 |
| Cc1cccc(N2CCC(N3CCCC4(CNC(=O)O4)C3)CC2)c1C (centres unmarked) [DDD01248972] | 36.41 | <30 |
| CCCn1cc(C(=O)NC2CCC(n3cnnc3)CC2)c(C)n1 (centres unmarked) [DDD01249122] | <30 | 90.61 |
| COc1cccc2c1OCC(C(=O)N1CCSCC1)C2 (centres unmarked) [DDD01249304] | <30 | 51.06 |
| O=C(c1ccccc1)N1CCCC(Nc2ccc(F)cc2)C1 (centres unmarked) [DDD01249390] | <30 | 180.87 |
| Cc1noc(CN(C)C(=O)c2[nH]nc(N)c2-c2ccccc2)n1 [DDD01249532] | 61.65 | <30 |
| Cc1nn(C)c2nc(N(C)CC3CCN(CC(C)C)C3)sc12 (centres unmarked) [DDD01249587] | 47.43 | <30 |
| COc1cccc(OC2CN(C(=O)c3sccc3C)C2)c1 [DDD01250000] | 64.75 | <30 |
| CN1CCC(N(C)C[C@H]2CC[C@@H](Cc3ccc4occc4c3)O2)CC1 [DDD01250070] | 33.03 | <30 |
| CCc1nn(C)c(Cl)c1CN1CCCC2(CC1)CN(C)C(=O)O2 (centres unmarked) [DDD01250081] | 32.84 | <30 |
| CN(C)Cc1nnc(C2CCN(c3ncccn3)CC2)n1C1CC1 [DDD01250187] | <30 | 31.65 |
| CCc1ccccc1C(=O)N1C[C@@H](CN2CCOCC2)[C@@H](CO)C1 [DDD01250732] | <30 | 143.16 |
| O=C(c1ccccn1)N1C[C@H]2CC[C@@H](C1)N(C(=O)CCC1CCCC1)C2 [DDD01250927] | <30 | 61.83 |
| O=C(c1ccccc1)N1C[C@H]2CC[C@@H](C1)N(Cc1cc(F)ccc1Cl)C2 [DDD01251068] | <30 | 176.84 |
| Cc1oc(-c2ccoc2)nc1CN1CCC[C@H]1CO [DDD01251548] | <30 | 131.44 |
| CN(C)c1nccnc1N1CC[C@@]2(O)CCNC[C@H]2C1 [DDD01251755] | 48.40 | <30 |
| COc1ccc(CN2CCC3(CCCNC3)C2)cc1Cn1cccn1 (centres unmarked) [DDD01251771] | <30 | 126.32 |
| CN(C)C(C(=O)N1CC(Oc2ccccc2F)C1)c1ccc(F)cc1 (centres unmarked) [DDD01251854] | 43.98 | <30 |
| Cc1ocnc1C(=O)N1CCC(c2nccn2Cc2ccncc2)CC1 [DDD01252089] | <30 | 78.03 |
| CN(C)c1ccccc1C(=O)N1CCOC2(CNCCOC2)C1 (centres unmarked) [DDD01252114] | <30 | 137.91 |
